Patent publication US11872199B2, “Topical formulations of cyclooxygenase inhibitors and their use” (SMARTECH TOPICAL, INC., priority 2019, dated 2024)

Assays:
[1] = printed as negative log P; cited from earlier work
[2] = Franz diffusion cell skin permeation testing of diclofenac formulations; assay type: in vitro ADME, human; conditions: Example 7, as permeation enhancer in 2% diclofenac formulation
Protocol: Franz diffusion cell experiments were used to analyze flux rates of diclofenac from compositions taught under the present disclosure across human skin. See, e.g., Bartosova and Bajgar, Transdermal Drug Delivery In Vitro Using Diffusion Cells, Curr. Med. Chem. 2012, 19: 4671-4677.
In the examples described herein, Franz diffusion cells (“FDC”s) with a 3.3 mL receptor well volume were used, with either porcine skin or human cadaver skin. For human cadaver skin, split thickness human cadaver skin (0.015″-0.018″) was obtained from AlloSource (Centennial, Colo.) or Skin Bank New York Firefighters (New York, N.Y.). The skin tissue was dermatomed by the tissue bank to a thickness of some 250 μm and shipped frozen on dry ice. […]
The integrity and quality of each skin piece was tested prior to application of the test formulations through measurement of the transdermal flux of tritiated water or of the transepidermal electrical resistance (“TEER”) (skin integrity was usually not tested on porcine skin pieces). […] An alternating current (“AC”) signal, 100 mV root mean square (“RMS”) at 100 Hz, was applied across the skin using a waveform generator and the impedance is then measured with a digital multimeter and the results recorded in kΩ. Any FDC showing anomalously low impedance (nominally <2 kΩ) was discarded and the FDCs were ranked according to the magnitudes of the measured impedance readings. […]

| SMILES | log P [1] | effect on penetration of diclofenac [2] |
| --- | --- | --- |
| CCOCCOCCO [Transcutol, 2-(2-Ethoxyethoxy)ethanol] | ~-0.5 | – |
| CCCCCCCC/C=C\CCCCCCCC(=O)O [Oleic Acid, cis-9-octadecenoic acid] | – | enhance penetration of diclofenac |
| CCCCCCCC/C=C\CCCCCCCCO [Oleyl Alcohol, oleyl alcohol] | – | enhance penetration of diclofenac |
